Measurements from patent US9956214B2, “5-aminopyrazole-4-carboxamide inhibitors of CDPK1 from T. gondii and C. parvum” (UNIVERSITY OF WASHINGTON THROUGH ITS CENTER FOR …, priority 2013, dated 2018).

Assays:
C. parvum Iowa strain = assay: C. parvum infection in mice (beige/SCID mouse model); conditions: oral gavage 20 mg/kg 8 AM and 40 mg/kg 5 PM, days 5-14 after infection; each time point except Days 0 and 3; p ≤0.05
Kdr = Kdr (Homo sapiens (Human), UniProt P35968); assay: Kinase panel selectivity: Kdr; type: biochemical
Chain of Kdr (P35968 20-1356, species assumed): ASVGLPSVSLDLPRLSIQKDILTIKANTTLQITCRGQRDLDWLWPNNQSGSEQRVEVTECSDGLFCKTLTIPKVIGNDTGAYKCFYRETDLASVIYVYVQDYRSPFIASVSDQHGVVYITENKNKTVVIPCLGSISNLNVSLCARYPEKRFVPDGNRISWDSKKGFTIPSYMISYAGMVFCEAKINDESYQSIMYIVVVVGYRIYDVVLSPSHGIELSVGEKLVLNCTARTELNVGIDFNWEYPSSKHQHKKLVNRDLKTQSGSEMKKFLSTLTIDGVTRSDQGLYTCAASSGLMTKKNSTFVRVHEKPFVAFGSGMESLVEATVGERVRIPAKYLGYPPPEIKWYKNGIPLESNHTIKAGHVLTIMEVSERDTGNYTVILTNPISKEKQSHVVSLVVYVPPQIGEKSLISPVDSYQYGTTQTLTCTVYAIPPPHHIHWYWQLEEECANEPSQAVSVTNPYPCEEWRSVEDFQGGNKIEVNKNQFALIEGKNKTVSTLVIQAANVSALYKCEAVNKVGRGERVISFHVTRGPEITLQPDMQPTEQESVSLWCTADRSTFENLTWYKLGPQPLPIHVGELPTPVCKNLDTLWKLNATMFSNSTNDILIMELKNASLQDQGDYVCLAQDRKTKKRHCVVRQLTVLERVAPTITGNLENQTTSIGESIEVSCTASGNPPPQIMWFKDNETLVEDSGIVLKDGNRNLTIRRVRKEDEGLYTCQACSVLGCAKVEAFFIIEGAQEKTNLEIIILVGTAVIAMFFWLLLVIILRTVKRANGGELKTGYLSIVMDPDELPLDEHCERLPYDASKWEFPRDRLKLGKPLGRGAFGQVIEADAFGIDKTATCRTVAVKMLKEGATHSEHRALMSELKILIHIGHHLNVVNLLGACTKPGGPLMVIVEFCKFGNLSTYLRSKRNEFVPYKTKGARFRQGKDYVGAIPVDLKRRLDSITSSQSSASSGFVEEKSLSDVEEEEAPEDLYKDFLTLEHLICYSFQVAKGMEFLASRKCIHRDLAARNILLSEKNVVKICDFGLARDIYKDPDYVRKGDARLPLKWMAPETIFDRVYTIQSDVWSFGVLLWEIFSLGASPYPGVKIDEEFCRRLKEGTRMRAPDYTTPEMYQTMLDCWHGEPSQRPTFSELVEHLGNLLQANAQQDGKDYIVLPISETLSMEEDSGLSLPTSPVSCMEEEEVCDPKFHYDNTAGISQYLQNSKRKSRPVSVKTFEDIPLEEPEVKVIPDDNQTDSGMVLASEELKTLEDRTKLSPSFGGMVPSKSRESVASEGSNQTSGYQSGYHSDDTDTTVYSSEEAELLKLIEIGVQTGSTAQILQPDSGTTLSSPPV

Solubility at pH 6.5 = type: physicochemical; conditions: in words
Prkcn = Prkcn (Homo sapiens (Human), UniProt O94806); assay: Kinase panel selectivity: Prkcn; type: biochemical
Chain of Prkcn (O94806 whole entry, looked up, species assumed): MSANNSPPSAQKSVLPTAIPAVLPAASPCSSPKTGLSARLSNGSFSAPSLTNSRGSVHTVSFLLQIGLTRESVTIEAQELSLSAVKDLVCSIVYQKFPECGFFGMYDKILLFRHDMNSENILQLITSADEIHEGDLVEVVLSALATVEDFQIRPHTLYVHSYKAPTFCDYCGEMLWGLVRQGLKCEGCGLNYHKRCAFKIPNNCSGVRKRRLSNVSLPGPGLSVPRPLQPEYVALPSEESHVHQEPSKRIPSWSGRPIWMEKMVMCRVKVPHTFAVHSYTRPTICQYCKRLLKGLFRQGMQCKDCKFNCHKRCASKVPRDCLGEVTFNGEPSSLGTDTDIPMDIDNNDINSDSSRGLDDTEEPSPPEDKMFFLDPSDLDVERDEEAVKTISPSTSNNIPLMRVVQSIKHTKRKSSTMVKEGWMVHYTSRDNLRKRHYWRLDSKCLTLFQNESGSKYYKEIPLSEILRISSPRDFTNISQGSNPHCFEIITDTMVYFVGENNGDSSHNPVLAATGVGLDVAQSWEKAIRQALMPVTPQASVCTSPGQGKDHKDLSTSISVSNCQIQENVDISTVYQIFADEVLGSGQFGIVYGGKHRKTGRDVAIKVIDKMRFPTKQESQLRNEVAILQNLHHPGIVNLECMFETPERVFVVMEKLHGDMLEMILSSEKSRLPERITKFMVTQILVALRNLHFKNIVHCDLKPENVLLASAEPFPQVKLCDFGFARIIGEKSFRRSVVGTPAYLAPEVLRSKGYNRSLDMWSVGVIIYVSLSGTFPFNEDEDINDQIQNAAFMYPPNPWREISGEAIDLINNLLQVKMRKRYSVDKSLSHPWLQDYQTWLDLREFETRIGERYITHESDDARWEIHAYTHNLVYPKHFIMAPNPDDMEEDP

Oral availability = type: in vivo; conditions: compared with compound 9 (1294)
[1] = tested on: 24 off-target liabilities (e.g. ion channels, G-protein receptors); assay: 24 off-target liability screen
Stability = conditions: in words
hERG = hERG (Homo sapiens (Human), UniProt Q12809); assay: hERG inhibitory activity; type: binding; conditions: in words, as compared to compound 9 (1294)
Chain of hERG (Q12809 whole entry): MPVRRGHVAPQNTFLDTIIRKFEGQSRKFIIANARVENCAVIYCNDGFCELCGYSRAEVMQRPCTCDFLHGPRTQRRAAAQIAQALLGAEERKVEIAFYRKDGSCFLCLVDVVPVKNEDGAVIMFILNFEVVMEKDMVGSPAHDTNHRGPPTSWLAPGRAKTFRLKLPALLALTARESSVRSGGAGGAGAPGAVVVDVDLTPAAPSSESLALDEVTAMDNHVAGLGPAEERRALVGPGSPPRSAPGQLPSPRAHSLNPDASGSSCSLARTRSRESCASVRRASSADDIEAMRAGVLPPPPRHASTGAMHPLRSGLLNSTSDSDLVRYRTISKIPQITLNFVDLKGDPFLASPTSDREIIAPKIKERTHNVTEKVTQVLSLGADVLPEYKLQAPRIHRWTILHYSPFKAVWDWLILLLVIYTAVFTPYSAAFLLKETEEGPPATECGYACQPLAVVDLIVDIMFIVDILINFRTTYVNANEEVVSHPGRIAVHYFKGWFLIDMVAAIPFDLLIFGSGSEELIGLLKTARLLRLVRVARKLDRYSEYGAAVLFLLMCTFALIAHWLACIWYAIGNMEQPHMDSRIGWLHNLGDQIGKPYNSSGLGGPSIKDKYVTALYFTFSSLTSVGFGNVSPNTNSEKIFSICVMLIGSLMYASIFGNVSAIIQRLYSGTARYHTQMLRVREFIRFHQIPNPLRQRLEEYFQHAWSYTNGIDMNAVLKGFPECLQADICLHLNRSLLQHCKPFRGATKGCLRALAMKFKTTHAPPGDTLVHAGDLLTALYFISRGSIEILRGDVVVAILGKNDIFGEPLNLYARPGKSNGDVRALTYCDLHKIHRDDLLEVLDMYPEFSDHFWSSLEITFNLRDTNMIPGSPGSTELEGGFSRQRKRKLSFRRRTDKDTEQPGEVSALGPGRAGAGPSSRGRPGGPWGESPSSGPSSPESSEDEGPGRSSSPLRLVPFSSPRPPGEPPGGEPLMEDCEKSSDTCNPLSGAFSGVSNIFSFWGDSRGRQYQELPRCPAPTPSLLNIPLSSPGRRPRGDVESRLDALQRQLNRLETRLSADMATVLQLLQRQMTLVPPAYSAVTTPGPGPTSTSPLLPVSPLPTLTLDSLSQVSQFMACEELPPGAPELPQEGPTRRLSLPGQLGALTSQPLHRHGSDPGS

[2] = tested on: 80 human protein kinases (hPKs); assay: AbbVie panel of 80 human protein kinases; type: biochemical; conditions: no hPKs inhibited

SMILES: CCOc1ccc2cc(-c3nn(C(C)(C)C)c(N)c3C(N)=O)cnc2c1 [Compound 39, 5-amino-1-(tert-butyl)-3-(7-ethoxyquinolin-3-yl)-1H-pyrazole-4-carboxamide]
- oocysts shed in stool, difference between treated and vehicle groups (C. parvum Iowa strain): the difference was significant
- Kdr pKi (Kdr): 6.24
- solubility (Solubility at pH 6.5): good solubility
- Prkcn pKi (Prkcn): 6.37
- oral availability (Oral availability): higher oral availability
- signal in 24 off-target liability screen [1]: no signal was detected
- stability (Stability): good stability
- hERG inhibitory activity (hERG): no hERG inhibitory activity
- inhibition of hPKs, level without inhibition [2]: > 3 µM
